How the values were obtained:
[1] = tested on: Propionibacterium acnes ATCC 29399; assay: Lethal photosensitization of Propionibacterium acnes using SnCe6 and laser light; assay type: cell-based
Procedure: (§1) Propionibacterium acnes ATCC 29399 was grown in pre-reduced Brain Heart Infusion broth at 37° C. in an anaerobic atmosphere. The cells were harvested by centrifugation and re-suspended in phosphate buffered saline (PBS) and diluted to 1×10^8 cfu/ml in PBS. 20 μl samples of the diluted bacterial suspension were then placed into wells of a 96-well plate, together with a magnetic stirrer bar. 100 μl of different concentrations (1-50 μg/ml) of the SnCe6 in PBS was added to the bacterial suspensions. Controls were performed with 100 μl PBS added to the bacteria and either irradiated (L+S−) or kept in the dark (L−S−). The experiment was carried out in duplicate.
(§2) After incubation, the contents of some of the wells were exposed to light from the 35 mW Helium/Neon laser emitting light with a wavelength of 633 nm for 10 min, with stirring, corresponding to an energy density of 42 J/cm^2. Aluminium foil was placed in the surrounding wells to allow any escaping laser light to be reflected back into the target well. Control wells were not irradiated with laser light.
(§3) After exposure to the laser light, 100 μl samples were immediately taken from each well and serially diluted, from 10^−1 to 10^−5, in 1 ml of pre-reduced TSY in 1.5 ml Eppendorf tubes. Duplicate 50 μl aliquots of each dilution were then spread out on half a CBA plate. The plates were incubated anaerobically at 37° C. and the resulting colonies were counted to determine the number of surviving organisms.

S. aureus 8325-4 [2] = assay: Lethal photosensitisation using phage 75-SnCe6 conjugate and a white light source; assay type: cell-based, Staphylococcus aureus; conditions: for % kill (L+S+): vs PBS in the dark
From the text: (§4) Bacterial strains: S. aureus 8325-4 • EMRSA-16
(§5) Light source: KL200 (Schott). This is a 20-watt halogen cold light source. The light guide attached to it is a flexible optic fibre bundle which is directed onto a 96 well plate at a distance of 5 cm. A square of 4-wells is placed at the centre of the light source.
(§6) Approx light intensity=44,000 lux or 470 μW/nm
(§7) Phage 75 was conjugated to SnCe6 as described above. Phages were used at a concentration of 1×10^7 pfu/ml.
(§8) Overnight cultures of S. aureus grown in nutrient broth were centrifuged, resuspended in PBS and adjusted to an OD of 0.05 at 600 nm (approximately 4×10^7 cfu/ml)
(§9) 50 μl of bacterial culture was aliquoted into a 96-well plate and 50 μl of the one of the following solutions added to the wells: • 1) 3.5 μg/ml SnCe6-phage 75 (final concentration 1.75 μg/ml, 1×10^6 pfu/well) in PBS • 2) 1.75 μg/ml SnCe6-phage 75 (final concentration 0.875 μg/ml, 5×10^5 pfu/well) in PBS • 3) 3.5 μg/ml SnCe6 in PBS (final concentration 1.75 μg/ml) • 4) 1.75 μg/ml SnCe6 in PBS (final concentration 0.875 μg/ml) • 5) PBS • 6) Phage 75 at a concentration of 5×10^5 or 1×10^6 pfu/well in PBS
(§10) Wells were either exposed to white light (4 wells at a time) or wrapped in tin foil and stored in the dark.
(§11) After various exposure times an aliquot was taken from each well, serially diluted and spread onto Columbia blood agar. Agar plates were incubated overnight at 37° C. and counted the next day.

EMRSA-16 = assay: as above; assay type: cell-based, Staphylococcus aureus; conditions: for % kill (L+S+): vs PBS in the dark
From the text: as §4, §5, §6, §7, §8, §9, §10, §11

[3] = tested on: Streptococcus pyogenes ATCC 12202; assay: Lethal photosensitization of Streptococcus pyogenes using SnCe6 and laser light; assay type: cell-based
Procedure: as §1, with “streptococcus pyogenes” for “Propionibacterium acnes”, “12202” for “29399”, “in” for “in pre-reduced”, “atmosphere consisting of 5% CO2 in air.” for “anaerobic atmosphere.”, “1×10^7” for “1×10^8”
as §2, with “633nm” for “633 nm”
as §3, with “ml” for “ml of pre-reduced”, “placed in a” for “incubated anaerobically at”, “C. incubator for up to 48 h” for “C.”

S. aureus 8325-4 [4] = assay: Targeted photodynamic therapy using Φ11-SnCe6 conjugates and a laser light source; assay type: cell-based, Staphylococcus aureus; conditions: 1.15 μg ml^−1 SnCe6, 633 nm 35 mW HeNe laser 5 minutes (21 J/cm^2)
Procedure: Bacteriophage Φ11 was propagated and precipitated as described above for phage 75, except that S aureus strain 8325-4 was used as the propagating strain. Tin chlorin e6 (SnCe6) was conjugated onto Staphylococcus phage Φ11 using the method described above, achieving bound concentrations of 2.3 and 3.5 μg ml^−1 SnCe6 with the phage Φ11 at 4.7×10^7 pfu.ml^−1. […] The final concentration of conjugated SnCe6 was 1.15 μg ml^−1.
The light source was a 35 mW Helium/Neon laser and irradiation (when used) was for 5 minutes in the case of FIGS. 3 and 4, and for 10 minutes in the case of FIG. 5.

16 strains of EMRSA = conditions: red light, higher light doses; cited from earlier work
[5] = 633 nm laser 10 min, 42 J/cm^2, 1-50 μg/ml
[6] = dark, increasing concentrations (1-50 μg/ml)
[7] = photosensitiser 50 μg/ml, 633 nm laser 10 min, 42 J/cm^2
[8] = white light 10 min, final photosensitiser 0.875 μg/ml
[9] = white light 10 min, final photosensitiser 1.75 μg/ml
[10] = white light 20 min, final photosensitiser 1.75 μg/ml
[11] = without exposure to white light

| Compound | effect on the viable count, irradiation [1, 5] | effect on the viable count, incubation in the dark [1, 6] | % kill of the organism [1, 7] [%] | % kill (L+S+) (S. aureus 8325-4 [2]; [8]) [%] | % kill (L+S+) (S. aureus 8325-4 [2]; [9]) [%] | % kill (L+S+) (S. aureus 8325-4 [2]; [10]) [%] | bacterial counts of controls vs unirradiated suspension without photosensitiser (S. aureus 8325-4 [2]; [11]) | % kill (L+S+) (EMRSA-16; [8]) [%] | % kill (L+S+) (EMRSA-16; [9]) [%] | % kill (L+S+) (EMRSA-16; [10]) [%] | bacterial counts of controls vs unirradiated suspension without photosensitiser (EMRSA-16; [11]) | effect on the viable count, irradiation [3, 5] | effect on the viable count, incubation in the dark [3, 6] | % kill of the organism [3, 7] [%] | % kill (compared to control counts in phosphate buffered saline) (S. aureus 8325-4 [4]) | % killing (16 strains of EMRSA) [%] |
| --- | --- | --- | --- | --- | --- | --- | --- | --- | --- | --- | --- | --- | --- | --- | --- | --- |
| C=CC1=C(C)C2=CC3=NC(=C(CC(=O)[O-])C4=NC(=C(C)C4=C([O-])[O-])C=c4[n-]c(c(C)c4CC)=CC1=N2)C(CCC(=O)[O-])C3C.[H+].[Sn+4] (stereo not shown) [SnCe6, tin (IV) chlorin e6] | concentration-dependent decrease in the viable count | no significant effect | 100 | 45.3 | 97.8 | 97.9 | not significantly different | 0 | 0 | 99.78 | not significantly different | concentration-dependent decrease in the viable count | no significant effect | 99.9997 | did not achieve any kill | – |
| aluminium disulphonated phthalocyanine [AlPcS2] | – | – | – | – | – | – | – | – | – | – | – | – | – | – | – | 100 |

Source: patent US20070020241A1, “Use of photosensitisation” (priority 2003, published 2007)
